From patent US6583306B1, “Methods of asymmetrically synthesizing enantiomers of Casodex, its derivatives and intermediates thereof” (priority 1999, dated 2003)
Like-named read-outs stand apart in the source and are kept apart here.

Tested on: testosterone response
Experiment: Biological data comparing pure enantiomers of Casodex (bicalutamide) with the racemic mixture: reduction of the testosterone response
Assay type: cell-based
Excerpt: The data for dihydrotestosterone are EC50 values. The rest of the data are IC50 values, since the assay is measuring the amount of compound it takes to reduce the testosterone response 50%.

[1] = Experiment 1, amount of compound it takes to reduce the testosterone response 50%, read-out: IC50, Experiment 1
[2] = Experiment 2, amount of compound it takes to reduce the testosterone response 50%, read-out: IC50, Experiment 2

C[C@]12CCC(=O)C[C@@H]1CC[C@@H]1[C@@H]2CC[C@]2(C)[C@@H](O)CC[C@@H]12 [DHT (Standard), dihydrotestosterone]
EC50 (read-out: EC50, Experiment 1): 0.18 nM | EC50 (read-out: EC50, Experiment 2): 0.18 nM

C[C@@](O)(CS(=O)(=O)c1ccc(F)cc1)C(=O)Nc1ccc(C#N)c(C(F)(F)F)c1 [(S)]
IC50 [1]: 7700 nM | IC50 [2]: 11000 nM

CC(O)(CS(=O)(=O)c1ccc(F)cc1)C(=O)Nc1ccc(C#N)c(C(F)(F)F)c1 [(R), N-(4cyano-3-trifluoromethyl-phenyl)-3-(4-fluoro-phenylsulfonyl)2-hydroxy-2-methyl-propionamide]
IC50 [1]: 374 nM | IC50 [2]: 359 nM

CC(O)(CS(=O)(=O)c1ccc(F)cc1)C(=O)Nc1ccc(C#N)c(C(F)(F)F)c1 (racemic) [Racemate, N-[4-cyano-3-(trifluoromethyl)phenyl]-3-[(4-fluorophenyl)sulfonyl]-2-hydroxy-2-methyl-propanamide,(+−)]
IC50 (read-out: IC50, Experiment 1): 900 nM | IC50 (read-out: IC50, Experiment 2): 1000 nM

CC(C)(O)C(=O)Nc1ccc([N+](=O)[O-])c(C(F)(F)F)c1 [OH Flut. (Standard)]
IC50 [1]: 19 nM | IC50 [2]: 41 nM
